We go through 21 compounds from patent US11453690B2, “Receptor inhibitor, pharmaceutical composition comprising same, and use thereof” (BEIJING TIDE PHARMACEUTICAL CO., LTD., priority 2018, dated 2022).

This assay addresses AT2 Receptor (AT2R) (Homo sapiens (Human), UniProt P50052). As to the kind of experiment: Measurement of inhibitory activity on AT2 receptor (Tag-lite HTRF, Tb-labeled AT2R cells, angiotensin receptor red agonist). The note with it: 1 h room temperature. Type of assay: binding. In general terms: Time-resolved FRET reads energy transfer from a long-lived donor to a nearby acceptor.

AT2 Receptor (AT2R), sequence (P50052 whole entry): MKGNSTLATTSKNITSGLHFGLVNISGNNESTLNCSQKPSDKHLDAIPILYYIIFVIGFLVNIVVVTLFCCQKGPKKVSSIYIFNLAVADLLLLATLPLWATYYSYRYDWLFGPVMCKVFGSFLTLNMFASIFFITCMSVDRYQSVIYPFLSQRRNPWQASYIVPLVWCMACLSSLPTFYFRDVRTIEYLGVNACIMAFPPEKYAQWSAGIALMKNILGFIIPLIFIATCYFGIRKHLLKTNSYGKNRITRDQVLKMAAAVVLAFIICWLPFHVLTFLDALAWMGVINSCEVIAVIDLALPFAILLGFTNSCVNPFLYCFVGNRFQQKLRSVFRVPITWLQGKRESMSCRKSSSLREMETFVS

As to `CC(C)c1ccc(CN(C)C(=O)N2[C@H]3CC[C@@H]2[C@@H](C(=O)O)N(C(=O)N(c2ccccc2)c2ccccc2)C3)cc1` [Compound C214, (1R,2S,5S)-3-(diphenylcarbamoyl)-8-((4-isopropylbenzyl) (methyl)carbamoyl)-3,8-diazabicyclo [3.2.1]octane-2-carboxylic acid], the half-maximal inhibitory concentration (IC50) – broadly, the midpoint of a concentration-inhibition curve – is 11.3 nM.
In the case of `O=C(O)[C@@H]1[C@H]2CC[C@@H](CN1C(=O)N(c1ccccc1)c1ccccc1)N2C(=O)C1(c2ccccc2)CCCC1` [Compound C113, (1R,2S,5S)-3-(diphenylcarbamoyl)-8-(1-phenylcyclopentane-1-carbonyl)-3,8-diazabicyclo [3.2.1]octane-2-carboxylic acid], the IC50 turned out to be 12.1 nM.
The result for `O=C(O)[C@@H]1[C@H]2CC[C@@H](CN1C(=O)N(c1ccccc1)c1ccccc1)N2C(=O)N(c1ccc(F)cc1)c1ccc(F)cc1` [Compound C145, (1R,2S,5S)-8-(bis(4-fluorophenyl)carbamoyl)-3-(diphenylcarbamoyl)-3,8-diazabicyclo [3.2.1]octane-2-carboxylic acid] reads 110 nM; that for `O=C(O)[C@@H]1[C@@H]2CC[C@@H](CC2OCc2ccccc2Cl)N1C(=O)C(c1ccccc1)c1ccccc1` (stereo partly drawn) [Compound C294, (1S,3S,4S)-5-((2-chloro-benzyl)oxy)-2-(2,2-diphenylacetyl)-2-azabicyclo [2.2.2]octane-3-carboxylic acid], 666 nM.
The result for `CN(Cc1ccncc1)C(=O)N1[C@H]2CC[C@@H]1[C@@H](C(=O)O)N(C(=O)N(c1ccccc1)c1ccccc1)C2` [Compound C125, (1R,2S,5S)-3-(diphenylcarbamoyl)-8-(methyl(pyridine-4-ylmethyl)carbamoyl)-3,8-diazabicyclo [3.2.1]octane-2-carboxylic acid] reads 19 nM; that for `CC(C)N(Cc1ccccc1)C(=O)N1[C@H]2CC[C@@H]1[C@@H](C(=O)O)N(C(=O)N(c1ccccc1)c1ccccc1)C2` [Compound C152, (1R,2S,5S)-8-(benzyl (isopropyl)carbamoyl)-3-(diphenylcarbamoyl)-3,8-diazabicyclo [3.2.1]octane-2-carboxylic acid], 47.4 nM.
In turn, `CN(Cc1ccccn1)C(=O)N1[C@H]2CC[C@@H]1[C@@H](C(=O)O)N(C(=O)N(c1ccccc1)c1ccccc1)C2` [Compound C126, (1R,2S,5S)-3-(diphenylcarbamoyl)-8-(methyl(pyridine-2-ylmethyl)carbamoyl)-3,8-diazabicyclo [3.2.1]octane-2-carboxylic acid] showed an IC50 of 78 nM.
As for `O=C(NC1CC2CCC1C(C(=O)O)N2C(=O)C(c1ccccc1)c1ccccc1)c1ccccc1` (stereo in doubt) [Compound C286, (1S,3S,4R)-5-benzamido-2-(2,2-diphenylacetyl)-2-azabicyclo[2.2.2]octane-3-carboxylic acid], the figure is 760 nM; as for `Cc1ccc(CN(C)C(=O)N2[C@H]3CC[C@@H]2[C@@H](C(=O)O)N(C(=O)N(c2ccccc2)c2ccccc2)C3)s1` [Compound C203, (1R,2S,5S)-3-(diphenylcarbamoyl)-8-(methyl ((5-methylthiophen-2-yl)methyl)carbamoyl)-3,8-diazabicyclo [3.2.1]octane-2-carboxylic acid], 13.7 nM.
The result for `CN(Cc1ccccc1)C(=O)N1[C@H]2CC[C@@H]1[C@@H](C(=O)O)N(C(=O)C1(c3ccccc3)CCCCC1)C2` [Compound C120, (1R,2S,5S)-8-(benzyl(methyl)carbamoyl)-3-(1-phenylcyclohexane-1-carbonyl)-3,8-diazabicyclo [3.2.1]octane-2-carboxylic acid] reads 350 nM.
The result for `CCN(Cc1cc(C)cs1)C(=O)N1[C@H]2CC[C@@H]1[C@@H](C(=O)O)N(C(=O)N(c1ccccc1)c1ccccc1)C2` [Compound C273, (1R,2S,5S)-3-(diphenylcarbamoyl)-8-(ethyl((4-methylthiophen-2-yl)methyl)carbamoyl)-3,8-diazabicyclo [3.2.1]octane-2-carboxylic acid] reads 20.9 nM; that for `CN(CC1CCCCC1)C(=O)N1[C@H]2CC[C@@H]1[C@@H](C(=O)O)N(C(=O)N(c1ccccc1)c1ccccc1)C2` [Compound C147, (1R,2S,5S)-8-((cyclohexylmethyl) (methyl)carbamoyl)-3-(diphenylcarbamoyl)-3,8-diazabicyclo [3.2.1]octane-2-carboxylic acid], 111 nM.
Consider `C[C@H](c1ccccc1)N(C)C(=O)N1[C@H]2CC[C@@H]1[C@@H](C(=O)O)N(C(=O)N(c1ccccc1)c1ccccc1)C2` [Compound C226, (1R,2S,5S)-3-(diphenylcarbamoyl)-8-(methyl((R)-1-phenylethyl)carbamoyl)-3,8-diazabicyclo [3.2.1]octane-2-carboxylic acid], for which the half-inhibitory concentration (IC50) was 12.7 nM.
`CC(Cc1ccccc1)C(=O)N1[C@H]2CC[C@@H]1[C@@H](C(=O)O)N(C(=O)C(c1ccccc1)c1ccccc1)C2` (stereo partly drawn) [Compound C230, (1R,2S,5S)-3-(2,2-diphenylacetyl)-8-(2-methyl-3-phenylpropionyl)-3,8-diazabicyclo [3.2.1]octane-2-carboxylic acid] showed a half-inhibitory concentration (IC50) of 50.2 nM.
`CCN(Cc1csc(C)c1)C(=O)N1[C@H]2CC[C@@H]1[C@@H](C(=O)O)N(C(=O)N(c1ccccc1)c1ccccc1)C2` [Compound C208, (1R,2S,5S)-3-(diphenylcarbamoyl)-8-(ethyl((5-methylthiophen-3-yl)methyl)carbamoyl)-3,8-diazabicyclo [3.2.1]octane-2-carboxylic acid] registered a concentration for half-maximal inhibition (IC50) of 11.8 nM.
Compound `CC(CC(=O)N1[C@H]2CC[C@@H]1[C@@H](C(=O)O)N(C(=O)C(c1ccccc1)c1ccccc1)C2)c1ccccc1` (stereo partly drawn) [Compound C223, (1R,2S,5S)-3-(2,2-diphenylacetyl)-8-(3-phenylbutyryl)-3,8-diazabicyclo [3.2.1]octane-2-carboxylic acid] registered a half-maximal inhibitory concentration (IC50) of 7.87 nM. The IC50 values of the last two compounds are within 1.5-fold of each other.
For the compound `O=C(O)[C@@H]1[C@H]2CC[C@@H](CN1C(=O)C(c1ccccc1)c1ccccc1)N2C(=O)CCc1ccccc1` [Compound C222, (1R,2S,5S)-3-(2,2-diphenylacetyl)-8-(3-phenylpropionyl)-3,8-diazabicyclo [3.2.1]octane-2-carboxylic acid], the IC50 was determined as 11.7 nM.
The compound `CCCc1ccc(CN(C)C(=O)N2[C@H]3CC[C@@H]2[C@@H](C(=O)O)N(C(=O)N(c2ccccc2)c2ccccc2)C3)cc1` [Compound C236, (1R,2S,5S)-3-(diphenylcarbamoyl)-8-(methyl(4-propylbenzyl)carbamoyl)-3,8-diazabicyclo[3.2.1]octane-2-carboxylic acid] yielded a half-inhibitory concentration (IC50) of 6.13 nM. This IC50 is about 1.9-fold lower than that of the compound before.
Turning to `O=C(O)[C@@H]1[C@H]2CC[C@@H](CN1C(=O)N(c1ccccc1)c1ccccc1)N2C(=O)N1CCCCC1c1ccccc1` (stereo partly drawn) [Compound C146, (1R,2S,5S)-3-(diphenylcarbamoyl)-8-(2-phenylpiperidine-1-carbonyl)-3,8-diazabicyclo [3.2.1]octane-2-carboxylic acid], the IC50 amounted to 14 nM.
Regarding `CN(Cc1csc2ccccc12)C(=O)N1[C@H]2CC[C@@H]1[C@@H](C(=O)O)N(C(=O)C(c1ccccc1)c1ccccc1)C2` [Compound C279], the IC50 was found to be 24.2 nM.
As for `CC(c1ccccc1)N(C)C(=O)N1[C@H]2CC[C@@H]1[C@@H](C(=O)O)N(C(=O)N(c1ccccc1)c1ccccc1)C2` (stereo partly drawn) [Compound C225, (1R,2S,5S)-3-(diphenylcarbamoyl)-8-(methyl (1-phenylethyl)carbamoyl)-3,8-diazabicyclo [3.2.1]octane-2-carboxylic acid], the figure is 11.7 nM.
